Where two headings read alike, the source gives them in different places.
How the values were obtained:
rabbit mGPa [1] = molecular target: T1, rabbit mGPa (Oryctolagus cuniculus, UniProt P00489); experiment: In vitro glycogen phosphorylase inhibition assay (direction of glycogen synthesis, colorimetric phosphate); type: biochemical; details: for inhibition at 50 µM: at 50 μM (highest concentration tested)
T1 construct: purchased Creative Enzymes
T1 sequence (P00489 2-843 limits assumed): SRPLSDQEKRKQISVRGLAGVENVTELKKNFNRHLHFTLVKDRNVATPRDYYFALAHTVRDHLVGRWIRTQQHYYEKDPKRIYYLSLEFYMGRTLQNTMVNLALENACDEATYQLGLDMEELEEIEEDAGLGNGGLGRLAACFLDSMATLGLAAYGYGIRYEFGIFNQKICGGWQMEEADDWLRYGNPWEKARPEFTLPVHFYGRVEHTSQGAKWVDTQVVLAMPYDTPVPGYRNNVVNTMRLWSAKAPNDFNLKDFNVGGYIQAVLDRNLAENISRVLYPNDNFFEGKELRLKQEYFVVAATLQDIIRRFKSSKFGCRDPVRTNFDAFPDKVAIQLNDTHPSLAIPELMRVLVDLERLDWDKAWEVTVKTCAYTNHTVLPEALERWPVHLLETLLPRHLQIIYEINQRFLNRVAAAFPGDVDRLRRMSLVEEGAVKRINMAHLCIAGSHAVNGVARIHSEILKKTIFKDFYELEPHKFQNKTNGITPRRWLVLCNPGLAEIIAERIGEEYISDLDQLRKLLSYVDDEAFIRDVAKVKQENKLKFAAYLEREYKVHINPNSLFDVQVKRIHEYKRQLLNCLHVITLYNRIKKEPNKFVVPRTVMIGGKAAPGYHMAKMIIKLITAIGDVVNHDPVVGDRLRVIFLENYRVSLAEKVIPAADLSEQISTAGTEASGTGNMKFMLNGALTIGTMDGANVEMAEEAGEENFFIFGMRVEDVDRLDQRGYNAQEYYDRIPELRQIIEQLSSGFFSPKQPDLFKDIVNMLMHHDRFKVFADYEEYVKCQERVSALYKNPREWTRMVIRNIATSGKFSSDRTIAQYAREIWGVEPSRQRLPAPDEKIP
Method: The GP activity was measured using a previously optimized and validated method. In each assay, GP activity was measured by the direction of glycogen synthesis, which involved monitoring the colorimetric determination of inorganic phosphate deriving from glucose 1-phosphate. […] The enzymatic reaction was then started with the addition of a 50 mM HEPES buffer solution, with a pH of 7.2, containing 100 mM KCl, 2.5 mM MgCl2, 0.25 mM glucose 1-phosphate, and 0.25 mg/mL glycogen incubated for 30 min at 37 °C. After this incubation time, the reagent for colorimetric phosphate quantitation, BIOMOL® Green, was added to the reaction mixture. The reaction was monitored in a microplate reader (Synergy HT, BioTek Instruments, Winooski, VT, USA) at 620 nm.

rabbit mGPa [2] = molecular target: T1, rabbit mGPa; experiment: In vitro effect of glucose on inhibitor potency (GPa inhibition with 0, 5, 10 mM glucose); type: biochemical; details: for IC50: mean ± SEM; for inhibition at 40 µM: at 40 μM (highest concentration tested), read-out: GPa inhibitory activity (%)
Method: The method was performed as described in Section 2.2, with slight modifications. […] The enzymatic reaction was then started with the addition of a 50 mM HEPES buffer solution with a pH of 7.2 containing 100 mM KCl, 2.5 mM MgCl2, 0.25 mM glucose 1-phosphate, and 0.25 mg/mL glycogen. This buffer was used without glucose, or it was enriched with 5 and 10 mM of glucose and was incubated for 30 min at 37 °C in the reaction mixture. After this incubation time, BIOMOL® Green was added, and the reaction was monitored in a microplate reader (Synergy HT, BioTek Instruments, Winooski, VT, USA) at 620 nm.

rabbit mGPa [3] = molecular target: T1, rabbit mGPa; set-up: method as in PMID 16317787; details: direction of glycogen breakdown; cited from earlier work
GPb = system: GPb; set-up: method as in PMID 16317787; details: direction of glycogen breakdown; cited from earlier work
[4] = Table S2 summary of activities, read-out: IC50
[5] = mean ± SEM, read-out: GPa inhibitory activity (%)
[6] = 0 mM of glucose, read-out: GPa IC50 value
[7] = 5 mM of glucose, read-out: GPa IC50 value
[8] = 10 mM of glucose, read-out: GPa IC50 value
[9] = no glucose, mean ± SEM, read-out: GPa IC50 value

| inhibition at 50 µM (rabbit mGPa [1]; [5]) | SMILES | also measured |
| --- | --- | --- |
| < 30% | COc1cc(OC)c2c(=O)cc(/C=C/c3ccc(O)c(O)c3)oc2c1 [Compound 25] | – |
| < 30% | COc1ccc(/C=C/c2c[nH]nc2-c2ccccc2O)cc1 [Compound 3] | – |
| < 30% | COc1ccc(/C=C/c2cc(=O)c3ccc(OC)c(OC)c3o2)cc1OC [Compound 27] | – |
| < 30% | COc1ccc2c(=O)cc(/C=C/c3ccc(OC)c(OC)c3)oc2c1 [Compound 28] | – |
| < 30% | COc1ccc(/C=C/c2cc(-c3ccccc3O)nn2-c2ccccc2)cc1 [Compound 12] | – |
| < 30% | COc1ccc(/C=C/c2cc(=O)c3c(OC)cccc3o2)cc1OC [Compound 29] | – |
| < 30% | COc1ccc(/C=C/c2cc(-c3ccccc3O)nn2S(=O)(=O)c2ccc(C)cc2)cc1 [Compound 13] | – |
| – | O=c1cc(-c2ccccc2)oc2c(O)c(O)cc(O)c12 [Compound 46, Norwogonin] | IC50 (rabbit mGPa [2]; [6]): 13.2 ± 1.4 µM; IC50 (rabbit mGPa [2]; [7]): 8.9 ± 1 µM; IC50 (rabbit mGPa [2]; [8]): 3.7 ± 0.5 µM; IC50 (rabbit mGPa [1]; [9]): 13.2 ± 1.4 µM |
| < 30% | O=c1cc(/C=C/C=C/c2ccc(O)c(O)c2)oc2ccccc12 [Compound 30] | – |
| < 30% | COc1ccc(/C=C/c2cc(-c3ccccc3OS(=O)(=O)c3ccc(C)cc3)nn2S(=O)(=O)c2ccc(C)cc2)cc1 [Compound 15] | – |
| < 30% | O=c1cc(-c2ccc(O)c(O)c2)oc2cc(O)cc(O)c12 [Compound 43, Luteolin] | IC50 (rabbit mGPa [1]; [4]): > 50 µM |
| < 30% | O=c1c(O)c(-c2ccccc2)oc2cc(O)cc(O)c12 [Compound 44, Galangin] | – |
| < 30% | Cc1ccc(S(=O)(=O)Oc2ccccc2-c2cc(/C=C/c3ccccc3)n(S(=O)(=O)c3ccc(C)cc3)n2)cc1 [Compound 14] | – |
| < 30% | O=[N+]([O-])c1cccc(/C=C\c2c[nH]nc2-c2ccccc2O)c1 [Compound 8] | – |
| < 30% | CCCCCCCCCCn1cc(/C=C/c2ccccc2)c(-c2ccccc2O)n1 [Compound 5] | – |
| < 30% | O=c1cc(/C=C/c2ccc(O)cc2)oc2cc(O)ccc12 [Compound 17] | – |
| 35.7 ± 2.1% | O=c1cc(-c2ccc(O)cc2)oc2cc(O)cc(O)c12 [Compound 42, Apigenin] | – |
| < 30% | Oc1ccccc1-c1n[nH]cc1/C=C/c1ccc(Cl)cc1 [Compound 2] | – |
| – | O=c1cc(/C=C/c2ccc(O)c(O)c2)oc2cc(O)cc(O)c12 [Compound 23] | IC50 (rabbit mGPa [1]; [9]): 31.7 ± 2.4 µM |
| < 30% | O=c1cc(-c2ccc(O)cc2)oc2cc(O)ccc12 [Compound 37] | – |
| < 30% | O=c1cc(/C=C/c2ccc(O)c(O)c2)oc2cc(O)ccc12 [Compound 19] | – |
| – | COc1cc2oc(-c3ccccc3)cc(=O)c2c(O)c1O [Compound 51, Baicalein-7-methylether] | IC50 (rabbit mGPa [1]; [9]): 22.6 ± 0.4 µM |
| < 30% | COc1cc2oc(-c3ccccc3)cc(=O)c2c(OC)c1OC [Compound 52, Baicalein-5,6,7-trimethylether] | – |
| – | O=C(O)[C@H]1O[C@@H](Oc2cc3oc(-c4ccccc4)cc(=O)c3c(O)c2O)[C@H](O)[C@@H](O)[C@@H]1O [Compound 49, Baicalin] | IC50 (rabbit mGPa [1]; [9]): 20.5 ± 2.5 µM |

| inhibition at 50 µM (rabbit mGPa [1]; [5]) | SMILES | also measured |
| --- | --- | --- |
| – | O=c1cc(/C=C/C=C/c2ccc(O)c(O)c2)oc2cc(O)ccc12 [Compound 32] | IC50 (rabbit mGPa [2]; [6]): 16.7 ± 1.5 µM; IC50 (rabbit mGPa [2]; [7]): 13.4 ± 1.6 µM; IC50 (rabbit mGPa [2]; [8]): 10.8 ± 1.2 µM; IC50 (rabbit mGPa [1]; [9]): 16.7 ± 1.5 µM |
| < 30% | CCCCCCCCCCCCn1cc(/C=C/c2ccc(Cl)cc2)c(-c2ccccc2O)n1 [Compound 7] | – |
| 35.8 ± 4.6% | COc1ccc2c(=O)cc(/C=C/C=C/c3ccc(OC)c(OC)c3)oc2c1 [Compound 35] | – |
| < 50% | O=c1cc(/C=C/c2ccc(O)cc2)oc2cc(O)cc(O)c12 [Compound 22] | – |
| 42.2 ± 5.6% | COc1cc(OC)c2c(=O)cc(/C=C/c3ccc(OC)c(OC)c3)oc2c1 [Compound 26] | – |
| – | COc1cc(O)c2c(=O)cc(/C=C/C=C/c3ccc(O)c(O)c3)oc2c1 [Compound 33] | IC50 (rabbit mGPa [2]; [6]): 15.9 ± 1.1 µM; inhibition at 40 µM (rabbit mGPa [2]; 5 mM of glucose): 53.9 ± 2.5%; inhibition at 40 µM (rabbit mGPa [2]; 10 mM of glucose): < 30%; IC50 (rabbit mGPa [1]; [9]): 15.9 ± 1.1 µM |
| < 30% | O=c1cc(/C=C/c2ccc(O)c(O)c2)oc2ccccc12 [Compound 18] | – |
| < 30% | O=c1cc(/C=C/C=C/c2ccc(O)c(O)c2)oc2cccc(O)c12 [Compound 31] | – |
| < 30% | COc1ccc(-c2n[nH]cc2/C=C\c2ccc([N+](=O)[O-])cc2)c(O)c1 [Compound 9] | – |
| < 30% | O=c1cc(/C=C/c2ccc(O)c(O)c2)oc2cccc(O)c12 [Compound 20] | – |
| < 30% | O=c1cc(-c2ccc(O)c(O)c2)oc2cc(O)ccc12 [Compound 40] | IC50 (rabbit mGPa [1]; [4]): > 50 µM |
| – | O=c1c(O)c(/C=C/c2ccc(O)c(O)c2)oc2c(O)c(O)ccc12 [Compound 24] | IC50 (rabbit mGPa [1]; [4]): > 25 µM; inhibition at 25 µM (rabbit mGPa [1]; at 25 μM (highest concentration tested), mean ± SEM, read-out: GPa inhibitory activity (%)): 33.7 ± 6.5% |
| – | O=c1cc(-c2ccccc2)oc2cc(O)c(O)c(O)c12 [Compound 47, Baicalein] | IC50 (rabbit mGPa [3]): 11.2 ± 1.5 µM; IC50 (GPb): 10.2 ± 1.2 µM; IC50 (rabbit mGPa [1]; [9]): 23.5 ± 2.9 µM |
| < 30% | Oc1ccccc1-c1cc(/C=C/c2ccccc2)[nH]n1 [Compound 10] | – |
| < 30% | Oc1ccccc1-c1n[nH]cc1/C=C/c1ccccc1 [Compound 1] | – |
| < 30% | CCCCCCCCCCCCn1cc(/C=C/c2ccccc2)c(-c2ccccc2O)n1 [Compound 6] | – |
| < 30% | O=c1cc(/C=C/c2ccccc2)oc2cc(O)ccc12 [Compound 16] | – |
| 51.9 ± 1.8% | COc1ccc2c(=O)cc(/C=C/C=C/c3ccc(O)c(O)c3)oc2c1 [Compound 34] | – |
| < 30% | O=c1cc(-c2ccc(O)cc2)oc2cc(O)c(O)c(O)c12 [Compound 48, Scutellarein] | IC50 (rabbit mGPa [1]; [4]): > 50 µM |
| – | CN(C)C(=O)[C@H](O)[C@H](Cc1ccccc1)NC(=O)c1cc2cc(Cl)ccc2[nH]1 [CP-91149, 5-chloro-N-[(1S,2R)-3-(dimethylamino)-2-hydroxy-3-oxo-1-(phenylmethyl)propyl]-1H-indole-2-carboxamide, reference compound] | IC50 (rabbit mGPa [2]; GPa IC50 value, 0 mM of glucose): 0.58 ± 0.09 µM; IC50 (rabbit mGPa [2]; GPa IC50 value, 5 mM of glucose): 0.39 ± 0.05 µM; IC50 (rabbit mGPa [2]; GPa IC50 value, 10 mM of glucose): 0.22 ± 0.04 µM; IC50 (rabbit mGPa [1]; [9]): 0.58 ± 0.09 µM |
| < 30% | Oc1ccccc1-c1cc(/C=C/c2ccc(Cl)cc2)[nH]n1 [Compound 11] | – |
| < 30% | O=c1cc(-c2ccc(O)c(O)c2)oc2ccccc12 [Compound 39] | IC50 (rabbit mGPa [1]; [4]): > 50 µM |
| < 30% | Oc1ccccc1-c1n[nH]cc1/C=C/c1ccccc1C(F)(F)F [Compound 4] | – |
| < 50% | O=c1cc(/C=C/c2ccccc2)oc2cc(O)cc(O)c12 [Compound 21] | – |

| SMILES | inhibition at 50 µM (rabbit mGPa [1]; [5]) | also measured |
| --- | --- | --- |
| O=c1cc(-c2ccc(O)c(O)c2)oc2cccc(O)c12 [Compound 41] | < 30% | IC50 (rabbit mGPa [1]; [4]): > 50 µM |
| O=c1c(O)c(-c2ccc(O)c(O)c2)oc2cc(O)c(O)c(O)c12 [Compound 50, Quercetagetin] | < 30% | IC50 (rabbit mGPa [1]; [4]): > 50 µM |
| O=c1c(O)c(-c2ccc(O)c(O)c2)oc2cc(O)cc(O)c12 [Compound 45, Quercetin] | < 30% | IC50 (rabbit mGPa [1]; [4]): > 50 µM |
| O=c1cc(-c2ccccc2)oc2cc(O)ccc12 [Compound 36] | < 30% | – |
